Measured values: ChEMBL document CHEMBL6103565, “Current strategies in design and synthesis of antifungals hybrid and chimeric diazine derivatives” (Bioorg Med Chem, 2025)
Converted amounts (≈) assume the structure as drawn.

Tests used:
Type in all cases: functional
Candida albicans [1] = assay: Antifungal activity against Candida albicans ATCC 90028 assessed as growth inhibition incubated for 36 hrs by resazurin dye based assay
Geotrichum candidum = assay: Antifungal activity against Geotrichum candidum
Candida albicans [2] = assay: Antifungal activity against Candida albicans
[3] = system: Syncephalastrum racemosum; assay: Antifungal activity against Syncephalastrum racemosum
Aspergillus niger [4] = assay: Antifungal activity against Aspergillus niger ATCC 16404 assessed as inhibition of mycelial growth relative to control
Candida albicans [5] = assay: Antifungal activity against Candida albicans ATCC 10231 assessed as inhibition of mycelial growth relative to control
Cryptococcus neoformans [6] = assay: Antifungal activity against Cryptococcus neoformans
Candida albicans [7] = assay: Antifungal activity against azole-resistant Candida albicans ATCC 10231 assessed as reduction in fungal growth by XTT assay
Candida albicans [8] = assay: Antifungal activity against azole-resistant Candida albicans ATCC 18804 assessed as reduction in fungal growth by XTT assay
Aspergillus fumigatus [9] = assay: Antifungal activity against Aspergillus fumigatus
[10] = system: Talaromyces purpureogenus; assay: Antifungal activity against Talaromyces purpureogenus assessed as zone of inhibition by disc diffusion method
Aspergillus niger [11] = assay: Antifungal activity against Aspergillus niger assessed as zone of inhibition by disc diffusion method
Aspergillus terreus = assay: Antifungal activity against Aspergillus terreus assessed as zone of inhibition by disc diffusion method
Candida albicans [12] = assay: Antifungal activity against Candida albicans NRRL-Y477 assessed as zone of inhibition by disc diffusion method
Candida albicans [13] = assay: Antifungal activity against azole-resistant Candida albicans ATCC 18804 assessed as fungal growth inhibition incubated for 24 hrs by CLSI protocol based broth microdilution method
Candida albicans [14] = assay: Antifungal activity against azole-resistant Candida albicans ATCC 10231 assessed as fungal growth inhibition incubated for 24 hrs by CLSI protocol based broth microdilution method
Candida albicans [15] = assay: Antifungal activity against Candida albicans assessed as reduction in fungal growth incubated for 18 hrs by broth microdilution method
Aspergillus fumigatus [16] = assay: Antifungal activity against Aspergillus fumigatus assessed as reduction in fungal growth
Aspergillus fumigatus [17] = assay: Antifungal activity against Aspergillus fumigatus assessed as reduction in fungal growth incubated for 20 to 24 hrs by CLSI based micro-dilution analysis; details: time 20-24 hrs
Aspergillus fumigatus [18] = assay: Antifungal activity against Aspergillus fumigatus RCMB 002568 assessed as diameter of zone inhibition
Candida albicans [19] = assay: Antifungal activity against Candida albicans RCMB 005036 assessed as diameter of zone inhibition
Nakaseomyces glabratus = assay: Antifungal activity against Candida glabrata ATCC 90030
Pichia kudriavzevii = assay: Antifungal activity against Candida krusei ATCC 6258
Candida parapsilosis = assay: Antifungal activity against Candida parapsilosis ATCC 22019; details: Lodderomyces parapsilosis
Candida albicans [20] = assay: Antifungal activity against Candida albicans ATCC 10231
Aspergillus fumigatus [21] = assay: Antifungal activity against Aspergillus fumigatus assessed as zone of inhibition
Candida albicans [22] = assay: Antimicrobial activity against Candida albicans ATCC 64124 assessed as reduction in microbial growth by CLSI protocol based micro-broth dilution method
Aspergillus flavus [23] = assay: Antimicrobial activity against Aspergillus flavus assessed as zone of inhibition
[24] = system: Syncephalastrum racemosum; assay: Antifungal activity against Syncephalastrum racemosum assessed as zone of inhibition
Cryptococcus neoformans [25] = assay: Antifungal activity against Cryptococcus neoformans assessed as reduction in fungal growth incubated for 24 hrs by broth microdilution method
Aspergillus fumigatus [26] = assay: Antifungal activity against Aspergillus fumigatus assessed as reduction in fungal growth incubated for 72 hrs by agar well diffusion method
Candida albicans [27] = assay: Antifungal activity against Candida albicans assessed as reduction in fungal growth incubated for 72 hrs by agar well diffusion method
Trichophyton rubrum = assay: Antifungal activity against Trichophyton rubrum assessed as diameter of zone inhibition
Microsporum audouinii = assay: Antifungal activity against Microsporum audouinii
Candida albicans [28] = assay: Antifungal activity against Candida albicans assessed as zone of inhibition
Candida albicans [29] = assay: Antifungal activity against Candida albicans assessed as zone of inhibition by disc diffusion method
Aspergillus niger [30] = assay: Antifungal activity against Aspergillus niger assessed as zone of inhibition
Aspergillus flavus [31] = assay: Antifungal activity against Aspergillus flavus assessed as zone of inhibition by disc diffusion method
Candida albicans [32] = assay: Antifungal activity against Candida albicans assessed as zone of inhibition by serial dilution and disc diffusion method
Rhizopus microsporus = assay: Antifungal activity against Rhizopus microsporus assessed as diameter of inhibition zone
Saccharomyces cerevisiae [33] = assay: Antimicrobial activity against Saccharomyces cerevisiae assessed as zone of inhibition by disc diffusion method
Saccharomyces cerevisiae [34] = assay: Antimicrobial activity against Saccharomyces cerevisiae assessed as zone of inhibition
Candida albicans [35] = assay: Antifungal activity against Candida albicans SC5314 assessed as reduction in fungal growth incubated for 72 hrs by broth microdilution method
Candida albicans [36] = assay: Antifungal activity against Candida albicans assessed as diameter of inhibition zone

SMILES: FC(F)(F)c1nnc2n1CCN(C(=S)Nc1ccc(Br)cc1)C2
- MIC (Candida albicans [1]): 6.25 µg/mL (≈ 15.4 µM)

SMILES: Cc1nc2c(sc3nc4c(nc32)c(C)nn4-c2ccccc2)c(=O)o1
- MIC (Geotrichum candidum): 4 µg/mL (≈ 11.4 µM)
- MIC (Candida albicans [2]): 3 µg/mL (≈ 8.59 µM)
- MIC [3]: 3 µg/mL (≈ 8.59 µM)

SMILES: CCCCCCCC(=O)O[C@@H]1[C@H](OC(=O)CCCCCCC)[C@@H](COC(c2ccccc2)(c2ccccc2)c2ccccc2)O[C@H]1n1ccc(=O)[nH]c1=O
- inhibition (INH) (Aspergillus niger [4]): 99%
- inhibition (INH) (Candida albicans [5]): 70%

SMILES: O=c1cc[nH]c(=O)n1N=C1CC(c2ccc(O)cc2)SC(c2ccc(O)cc2)C1 (stereo not given)
- MIC (Candida albicans [2]): 0.25 µg/mL (≈ 0.611 µM)
- MIC (Cryptococcus neoformans [6]): 4 µg/mL (≈ 9.77 µM)

SMILES: O=C1N=C(n2[nH]c(=O)ccc2=O)S/C1=N\Nc1ccc(Cl)cc1Cl
- MIC (Candida albicans [7]): 2.1 µg/mL (≈ 5.47 µM)
- MIC (Candida albicans [8]): 0.6 µg/mL (≈ 1.56 µM)

SMILES: Cc1cc(Nc2ccc(=O)n(-c3ccccc3)n2)no1
- MIC (Candida albicans [2]): 18 µg/mL (≈ 67.1 µM)
- MIC (Aspergillus fumigatus [9]): 18 µg/mL (≈ 67.1 µM)

SMILES: CCOC(=O)c1c(C)nc2sc3c(-n4nc(C)cc4C)ncnc3c2c1-c1cccs1
- inhibition zone (IZ) [10]: 25 mm
- inhibition zone (IZ) (Aspergillus niger [11]): 24 mm

SMILES: CCOC(=O)c1c(C)nc2sc3c(ncn4nc(C)nc34)c2c1-c1cccs1
- inhibition zone (IZ) (Aspergillus terreus): 25 mm
- inhibition zone (IZ) (Candida albicans [12]): 25 mm

SMILES: O=C1N=C(n2[nH]c(=O)ccc2=O)S/C1=N\Nc1ccc(-c2ccc(N/N=C3/SC(n4[nH]c(=O)ccc4=O)=NC3=O)cc2)cc1
- MIC (Candida albicans [7]): 3.1 µg/mL (≈ 4.93 µM)

SMILES: O=c1ccc(=O)n(-c2nc(-c3cccs3)cs2)[nH]1
- MIC (Candida albicans [13]): 1.9 µg/mL (≈ 6.85 µM)
- MIC (Candida albicans [14]): 3.9 µg/mL (≈ 14.1 µM)

SMILES: Cc1cc(=O)n2nc(C(=O)NN)nc2[nH]1
- MIC (Candida albicans [15]): 4 µg/mL (≈ 19.2 µM)

SMILES: O=C1CS/C(=N\c2nn(-c3ccccc3)nc2C(=O)Nc2cnccn2)N1
- MIC (Aspergillus fumigatus [16]): < 209 µg/mL

SMILES: OC[C@H]1O[C@@H](Sc2nnc(Cc3ccc4ccc5cccc6ccc3c4c56)c3ccccc23)[C@H](O)[C@H]1O
- MIC (Aspergillus fumigatus [17]): 17 µg/mL (≈ 33.4 µM)

SMILES: O=C(Nc1ccc(F)cc1)N1CCn2c(nnc2C(F)(F)F)C1
- MIC (Candida albicans [1]): 6.25 µg/mL (≈ 19 µM)

SMILES: CCOC(=O)c1c(C)nc2sc3c(=O)[nH]cnc3c2c1-c1cccs1
- inhibition zone (IZ) [10]: 25 mm
- inhibition zone (IZ) (Candida albicans [12]): 25 mm

SMILES: CC(=O)N1CCN(c2ccc(OC[C@H]3CO[C@](Cn4ccnc4)(c4ccc(Cl)cc4Cl)O3)cc2)CC1
- inhibition zone (IZ) (Aspergillus fumigatus [18]): 23 mm
- inhibition zone (IZ) (Candida albicans [19]): 25 mm
- MIC (Aspergillus fumigatus [17]): 18 µg/mL (≈ 33.9 µM)
- MIC (Nakaseomyces glabratus): 0.78 µg/mL (≈ 1.47 µM)
- MIC (Pichia kudriavzevii): 0.78 µg/mL (≈ 1.47 µM)
- MIC (Candida parapsilosis): 0.78 µg/mL (≈ 1.47 µM)
- MIC50 (Candida albicans [20]): 0.78 µg/mL (≈ 1.47 µM)

SMILES: C[C@@H]1[C@H](O)[C@@H](C)/C=C/C=C/C=C/C=C/C=C/C=C/C=C/[C@H](O[C@@H]2O[C@H](C)[C@@H](O)[C@H](N)[C@@H]2O)C[C@@H]2O[C@](O)(C[C@@H](O)C[C@@H](O)[C@H](O)CC[C@@H](O)C[C@@H](O)CC(=O)O[C@H]1C)C[C@H](O)[C@H]2C(=O)O [AMPHOTERICIN B]
- MIC (Candida albicans [13]): 0.2 µg/mL (≈ 0.216 µM)
- MIC (Candida albicans [7]): 1.9 µg/mL (≈ 2.06 µM)
- MIC (Candida albicans [8]): 0.2 µg/mL (≈ 0.216 µM)
- MIC (Candida albicans [14]): 1.9 µg/mL (≈ 2.06 µM)
- inhibition zone (IZ) (Aspergillus fumigatus [21]): 24 mm
- MIC (Candida albicans [22]): 1 µg/mL
- inhibition zone (IZ) (Aspergillus flavus [23]): 15 mm
- inhibition zone (IZ) [24]: 20 mm
- MIC (Cryptococcus neoformans [25]): 0.39 µg/mL (≈ 0.422 µM)
- MIC (Aspergillus fumigatus [26]): 1.95 µg/mL (≈ 2.11 µM)
- MIC (Candida albicans [27]): 3.9 µg/mL (≈ 4.22 µM)
- inhibition zone (IZ) (Aspergillus niger [11]): 17 mm

SMILES: Clc1ccccc1C(c1ccccc1)(c1ccccc1)n1ccnc1 [CLOTRIMAZOLE]
- inhibition zone (IZ) (Trichophyton rubrum): 14 mm
- MIC (Geotrichum candidum): 5 µg/mL (≈ 14.5 µM)
- MIC (Microsporum audouinii): 4 µg/mL (≈ 11.6 µM)
- MIC (Aspergillus fumigatus [9]): 68 µg/mL (≈ 197 µM)
- MIC (Cryptococcus neoformans [6]): 2 µg/mL (≈ 5.8 µM)

SMILES: OC(Cn1cncn1)(Cn1cncn1)c1ccc(F)cc1F [FLUCONAZOLE]
- inhibition zone (IZ) (Candida albicans [28]): 22 mm
- inhibition zone (IZ) (Candida albicans [29]): 2.1 mm
- inhibition zone (IZ) (Aspergillus niger [30]): 20 mm
- MIC (Candida albicans [15]): 0.125 µg/mL (≈ 0.408 µM)
- inhibition zone (IZ) (Aspergillus flavus [31]): 2.9 mm
- inhibition zone (IZ) (Candida albicans [32]): 24 mm
- inhibition zone (IZ) (Rhizopus microsporus): 12 mm
- MIC (Nakaseomyces glabratus): 0.78 µg/mL (≈ 2.55 µM)
- MIC (Candida albicans [22]): > 64 µg/mL
- MIC (Pichia kudriavzevii): 0.78 µg/mL (≈ 2.55 µM)
- inhibition zone (IZ) (Saccharomyces cerevisiae [33]): 13 mm
- MIC (Cryptococcus neoformans [25]): 8 µg/mL (≈ 26.1 µM)
- inhibition zone (IZ) (Saccharomyces cerevisiae [34]): 11 mm
- MIC (Candida albicans [35]): ≤ 0.25 µg/mL
- MIC (Candida parapsilosis): 0.78 µg/mL (≈ 2.55 µM)
- MIC50 (Candida albicans [20]): 0.78 µg/mL (≈ 2.55 µM)
- inhibition zone (IZ) (Candida albicans [36]): 10 mm
- MIC (Aspergillus fumigatus [16]): < 212 µg/mL

SMILES: C[C@@H](c1ncncc1F)[C@](O)(Cn1cncn1)c1ccc(F)cc1F [VORICONAZOLE]
- inhibition zone (IZ) [10]: 17 mm
- inhibition zone (IZ) (Aspergillus terreus): 20 mm
- inhibition zone (IZ) (Aspergillus niger [11]): 20 mm
